In ChEMBL document CHEMBL5233215, “Recent developments of chalcones as potential antibacterial agents in medicinal chemistry” (Eur J Med Chem, 2020):
Values after ≈ are worked out from the molar mass of the structure shown.

Columns and labels:
Assay type in all cases: functional
[1] = tested on: Staphylococcus aureus; assay: Antibacterial activity Staphylococcus aureus assessed as inhibition of bacterial growth incubated for 12 to 18 hrs by NCCLS protocol based microdilution method; conditions: time 12-18 hrs
[2] = tested on: Klebsiella pneumoniae; assay: Antibacterial activity Klebsiella pneumoniae assessed as inhibition of bacterial growth incubated for 12 to 18 hrs by NCCLS protocol based microdilution method; conditions: time 12-18 hrs
[3] = tested on: Bacillus subtilis; assay: Antibacterial activity Bacillus subtilis NBRC 3757 assessed as inhibition of bacterial growth after 48 hrs by two fold dilution method
[4] = tested on: Staphylococcus epidermidis; assay: Antibacterial activity Staphylococcus epidermidis NBRC 12993 assessed as inhibition of bacterial growth after 48 hrs by two fold dilution method
[5] = tested on: Micrococcus luteus; assay: Antibacterial activity Micrococcus luteus NBRC 333 assessed as inhibition of bacterial growth after 48 hrs by two fold dilution method
[6] = tested on: Staphylococcus aureus; assay: Antimicrobial activity against Staphylococcus aureus MTCC 1430 assessed as bacterial growth inhibition incubated for 24 hrs by broth micro dilution method
[7] = tested on: Bacillus subtilis; assay: Antimicrobial activity against Bacillus subtilis MTCC 441 assessed as bacterial growth inhibition incubated for 24 hrs by broth micro dilution method
[8] = tested on: Escherichia coli; assay: Antimicrobial activity against Escherichia coli MTCC 1573 assessed as bacterial growth inhibition incubated for 24 hrs by broth micro dilution method
[9] = tested on: Pseudomonas aeruginosa; assay: Antimicrobial activity against Pseudomonas aeruginosa MTCC 424 assessed as bacterial growth inhibition incubated for 24 hrs by broth micro dilution method
[10] = tested on: Mycolicibacterium smegmatis; assay: Antimycobacterial activity against Mycobacterium smegmatis ATCC 607 assessed as bacterial growth inhibition incubated for 48 hrs by resazurin dye based assay
[11] = tested on: Mycobacterium tuberculosis; assay: Antimycobacterial activity against Mycobacterium tuberculosis H37Rv CNCTC My 331/88 assessed as bacterial growth inhibition incubated for 5 days by resazurin dye based assay; conditions: H37Rv CNCTC My 331/88, 120 h, time 5 day
[12] = tested on: Mycobacterium kansasii; assay: Antimycobacterial activity against Mycobacterium kansasii CNCTC My 235/80 assessed as bacterial growth inhibition incubated for 5 days by resazurin dye based assay; conditions: CNCTC My 235/80, 120 h, time 5 day
[13] = tested on: Staphylococcus aureus; assay: Antibacterial activity methicillin-resistant Staphylococcus aureus MRSA ST-1745 assessed as inhibition of bacterial growth incubated for 16 to 24 hrs by broth microdilution assay; conditions: time 16-24 hrs
[14] = tested on: Staphylococcus aureus; assay: Antibacterial activity methicillin-resistant Staphylococcus aureus MRSA ST-2071 assessed as inhibition of bacterial growth incubated for 16 to 24 hrs by broth microdilution assay; conditions: time 16-24 hrs
[15] = tested on: Staphylococcus aureus; assay: Antibacterial activity methicillin-resistant Staphylococcus aureus MRSA B-10760 assessed as inhibition of bacterial growth incubated for 16 to 24 hrs by broth microdilution assay; conditions: time 16-24 hrs
[16] = tested on: Staphylococcus aureus; assay: Antibacterial activity methicillin-resistant Staphylococcus aureus MRSA ST-2438 assessed as inhibition of bacterial growth incubated for 16 to 24 hrs by broth microdilution assay; conditions: time 16-24 hrs
[17] = tested on: Staphylococcus aureus; assay: Antibacterial activity methicillin-resistant Staphylococcus aureus MRSA ST-3151 assessed as inhibition of bacterial growth incubated for 16 to 24 hrs by broth microdilution assay; conditions: time 16-24 hrs
[18] = tested on: Staphylococcus aureus; assay: Antibacterial activity methicillin-resistant Staphylococcus aureus MRSA ST-5457 assessed as inhibition of bacterial growth incubated for 16 to 24 hrs by broth microdilution assay; conditions: time 16-24 hrs
[19] = tested on: Staphylococcus aureus; assay: Antibacterial activity methicillin-resistant Staphylococcus aureus MRSA ST-10342 assessed as inhibition of bacterial growth incubated for 16 to 24 hrs by broth microdilution assay; conditions: time 16-24 hrs
[20] = tested on: Staphylococcus aureus; assay: Antibacterial activity methicillin-resistant Staphylococcus aureus MRSA P-6642 assessed as inhibition of bacterial growth incubated for 16 to 24 hrs by broth microdilution assay; conditions: time 16-24 hrs
[21] = tested on: Staphylococcus aureus; assay: Antibacterial activity methicillin-resistant Staphylococcus aureus MRSA P-8029 assessed as inhibition of bacterial growth incubated for 16 to 24 hrs by broth microdilution assay; conditions: time 16-24 hrs
[22] = tested on: Staphylococcus aureus; assay: Antibacterial activity methicillin-resistant Staphylococcus aureus MRSA B-10732 assessed as inhibition of bacterial growth incubated for 16 to 24 hrs by broth microdilution assay; conditions: time 16-24 hrs
[23] = tested on: Bacillus anthracis; assay: Antibacterial activity Bacillus anthracis Sterne 34F2 assessed as inhibition of bacterial growth by CLSI based microbroth dilution assay
[24] = tested on: Staphylococcus aureus; assay: Antibacterial activity methicillin-resistant Staphylococcus aureus USA300 assessed as inhibition of bacterial growth by CLSI based microbroth dilution assay
[25] = tested on: Staphylococcus aureus; assay: Antibacterial activity methicillin-sensitive Staphylococcus aureus ATCC 29213 assessed as inhibition of bacterial growth by CLSI based microbroth dilution assay
[26] = tested on: Bacillus subtilis; assay: Antibacterial activity Bacillus subtilis assessed as inhibition of bacterial growth after 18 hrs by broth dilution method
[27] = tested on: Bacillus cereus; assay: Antibacterial activity Bacillus cereus assessed as inhibition of bacterial growth after 18 hrs by broth dilution method
[28] = tested on: Pectobacterium carotovorum; assay: Antibacterial activity Pectobacterium carotovorum assessed as inhibition of bacterial growth after 18 hrs by broth dilution method
[29] = tested on: Escherichia coli; assay: Antibacterial activity Escherichia coli assessed as inhibition of bacterial growth after 18 hrs by broth dilution method
[30] = tested on: Staphylococcus aureus; assay: Antibacterial activity Staphylococcus aureus assessed as inhibition of bacterial growth after 18 hrs by broth dilution method
[31] = tested on: Klebsiella pneumoniae; assay: Antibacterial activity Klebsiella pneumoniae K4 assessed as inhibition of bacterial growth incubated for 24 hrs by microbroth dilution assay
[32] = tested on: Pseudomonas aeruginosa; assay: Antibacterial activity Pseudomonas aeruginosa Ps12 assessed as inhibition of bacterial growth incubated for 24 hrs by microbroth dilution assay
[33] = tested on: Staphylococcus aureus; assay: Antibacterial activity Staphylococcus aureus ATCC 25923 assessed as inhibition of bacterial growth incubated for 16 hrs by CLSI protocol based microdilution method
[34] = tested on: Staphylococcus aureus; assay: Antibacterial activity methicillin-resistant Staphylococcus aureus ATCC 700699 assessed as inhibition of bacterial growth incubated for 16 hrs by CLSI protocol based microdilution method
[35] = tested on: Staphylococcus aureus; assay: Antibacterial activity Staphylococcus aureus ATCC 29213 assessed as inhibition of bacterial growth incubated for 16 hrs by CLSI protocol based microdilution method
[36] = tested on: Staphylococcus aureus; assay: Antibacterial activity Staphylococcus aureus ATCC 33592 assessed as inhibition of bacterial growth incubated for 16 hrs by CLSI protocol based microdilution method
[37] = tested on: Escherichia coli; assay: Antibacterial activity Escherichia coli NCIM 2918 assessed as inhibition of bacterial growth incubated for 24 hrs by serial dilution technique
[38] = tested on: Bacillus subtilis; assay: Antibacterial activity Bacillus subtilis NCIM 2063 assessed as inhibition of bacterial growth incubated for 24 hrs by serial dilution technique
[39] = tested on: Staphylococcus aureus; assay: Antibacterial activity Staphylococcus aureus NCIM 2079 assessed as inhibition of bacterial growth incubated for 24 hrs by serial dilution technique

Nc1ccccc1C(=O)CC(c1ccc(Cl)cc1)S(=O)(=O)c1ccccc1 (stereo not drawn)
MIC [1]: 1.95 µg/mL (≈ 4.88 µM)
MIC [2]: 25.5 µg/mL (≈ 63.8 µM)

COc1cc(O)c(C(=O)/C=C/c2ccc(O)cc2)cc1CC=C(C)C
MIC [3]: 4 µg/mL (≈ 11.8 µM)
MIC [4]: 4 µg/mL (≈ 11.8 µM)
MIC [5]: 4 µg/mL (≈ 11.8 µM)

Cc1c(C(F)(F)F)cc(Cl)c(Cl)c1-n1nnc(C(=O)/C=C/c2cn(-c3ccccc3)nc2-c2ccc(Cl)cc2)c1C
MIC [6]: 12.5 µg/mL (≈ 20.3 µM)
MIC [7]: 6.25 µg/mL (≈ 10.1 µM)
MIC [8]: 3.12 µg/mL (≈ 5.06 µM)
MIC [9]: 3.12 µg/mL (≈ 5.06 µM)

CC(C)(C)c1cnc(C(=O)/C=C/c2ccccc2F)cn1
MIC [10]: > 500 µg/mL
MIC [11]: 6.25 µg/mL (≈ 22 µM)
MIC [12]: 12.5 µg/mL (≈ 44 µM)

O=C(/C=C/c1ccc(Cl)cc1)c1ccc(O)cc1
MIC [13]: 25 µg/mL (≈ 96.6 µM)
MIC [14]: 25 µg/mL (≈ 96.6 µM)
MIC [15]: 25 µg/mL (≈ 96.6 µM)
MIC [16]: 25 µg/mL (≈ 96.6 µM)
MIC [17]: 25 µg/mL (≈ 96.6 µM)
MIC [18]: 25 µg/mL (≈ 96.6 µM)
MIC [19]: 25 µg/mL (≈ 96.6 µM)
MIC [20]: 25 µg/mL (≈ 96.6 µM)
MIC [21]: 25 µg/mL (≈ 96.6 µM)
MIC [22]: 25 µg/mL (≈ 96.6 µM)

COc1ccc(C(=O)/C=C/c2ccc(F)cc2)cc1
MIC [23]: 12.5 µg/mL (≈ 48.8 µM)

COc1ccc(/C=C/C(=O)c2ccc(O)c(C)c2)cc1
MIC [23]: 12.5 µg/mL (≈ 46.6 µM)

COc1ccc(C(=O)/C=C/c2ccc(O)cc2)c(O)c1C/C=C(\C)CCC=C(C)C [XANTHOANGELOL F]
MIC [3]: 64 µg/mL (≈ 157 µM)
MIC [4]: 64 µg/mL (≈ 157 µM)
MIC [5]: 64 µg/mL (≈ 157 µM)

CCN(CC)c1ccc(/C=C/C(=O)c2ccc(O)cc2O)cc1
MIC [23]: 3.12 µg/mL (≈ 10 µM)
MIC [24]: 3.12 µg/mL (≈ 10 µM)
MIC [25]: 6.25 µg/mL (≈ 20.1 µM)

O=C(/C=C/c1ccc(O)cc1)c1ccc(O)cc1O [ISOLIQUIRITIGENIN]
MIC [26]: 31.3 µg/mL (≈ 122 µM)
MIC [27]: 15.5 µg/mL (≈ 60.5 µM)
MIC [28]: 15.5 µg/mL (≈ 60.5 µM)
MIC [29]: 31.3 µg/mL (≈ 122 µM)
MIC [30]: 7.8 µg/mL (≈ 30.4 µM)

CC(C)=CCC/C(C)=C/Cc1c(O)ccc(C(=O)/C=C/c2ccc(O)cc2)c1O [XANTHOANGELOL]
MIC [3]: 4 µg/mL (≈ 10.2 µM)
MIC [4]: 4 µg/mL (≈ 10.2 µM)
MIC [5]: 4 µg/mL (≈ 10.2 µM)

O=C(/C=C/c1ccc(N2CCCCC2)cc1)c1ccc(O)cc1O
MIC [24]: 3.12 µg/mL (≈ 9.66 µM)
MIC [25]: 3.12 µg/mL (≈ 9.66 µM)

COc1cc(C(CC(=O)c2ccc(C)cc2)SC(=S)N2CCOCC2)cc(OC)c1OC (stereo not drawn)
MIC [31]: 8 µg/mL (≈ 16.8 µM)
MIC [32]: 8 µg/mL (≈ 16.8 µM)

COc1ccc(-c2csc(/N=C/c3cc(/C=C/C(=O)c4ccc(C)cc4)cc(C(C)(C)C)c3O)n2)cc1OC
MIC [33]: 5.8 µg/mL (≈ 10.7 µM)
MIC [34]: 11.6 µg/mL (≈ 21.5 µM)
MIC [35]: 5.8 µg/mL (≈ 10.7 µM)
MIC [36]: 1.4 µg/mL (≈ 2.59 µM)

COc1ccc(C(=O)/C=C/c2ccc(O)cc2)c(O)c1CC=C(C)C
MIC [3]: 2 µg/mL (≈ 5.91 µM)
MIC [4]: 2 µg/mL (≈ 5.91 µM)
MIC [5]: 2 µg/mL (≈ 5.91 µM)

Cc1cc(C(=O)/C=C/c2ccc(N3CCCCC3)cc2)ccc1O
MIC [23]: 1.56 µg/mL (≈ 4.85 µM)

O=C(/C=C/c1ccc(Br)cc1)c1ccc(Cl)cc1
MIC [37]: 1000 µg/mL (≈ 3110 µM)
MIC [38]: 1000 µg/mL (≈ 3110 µM)
MIC [39]: 1000 µg/mL (≈ 3110 µM)

O=C(/C=C/c1c[nH]c2ccccc12)c1cccc(OCc2ccccc2)c1
MIC [13]: 12.5 µg/mL (≈ 35.4 µM)
MIC [14]: 12.5 µg/mL (≈ 35.4 µM)
MIC [15]: 12.5 µg/mL (≈ 35.4 µM)
MIC [16]: 12.5 µg/mL (≈ 35.4 µM)
MIC [17]: 12.5 µg/mL (≈ 35.4 µM)
MIC [18]: 12.5 µg/mL (≈ 35.4 µM)
MIC [19]: 12.5 µg/mL (≈ 35.4 µM)
MIC [20]: 12.5 µg/mL (≈ 35.4 µM)
MIC [21]: 12.5 µg/mL (≈ 35.4 µM)
MIC [22]: 12.5 µg/mL (≈ 35.4 µM)
